Laboratory results published in the supplement of paper PMC10307832.

Key:
Test in all cases: relative viability (nuclei count vs DMSO), 5 days (fraction); higher = more cells survive
SGI-1776 + Foretinib = compound: CN1CCC(CNc2ccc3ncc(-c4cccc(OC(F)(F)F)c4)n3n2)CC1 [SGI-1776] + COc1cc2c(Oc3ccc(NC(=O)C4(C(=O)Nc5ccc(F)cc5)CC4)cc3F)ccnc2cc1OCCCN1CCOCC1 [Foretinib] (partner 0.25 µM)
Method in brief: (§1)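 Medians of duplicate plates are given as relative viability. That measure is the nuclei count in treated wells divided by the count in vehicle wells. Counts were taken on 4× images of lung cancer cell lines in 1536-well plates, 5 days after pin-tool dosing the day after seeding with one drug alone or a fixed anchor-drug dose plus five library-drug doses (not always all listed) in √10 steps.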

[1] = compound: C1COCCN1C2=NC(=NC3=C2OC4=C3C=CC=N4)C5=CC(=CC=C5)NC(=O)C6=CN=C(C=C6)N + Nc1ncn([C@H]2C[C@H](O)[C@@H](CO)O2)c(=O)n1 [Decitabine] (partner 2 µM)
Method in brief: as §1

SGI-1776 + Bortezomib = compound: CN1CCC(CNc2ccc3ncc(-c4cccc(OC(F)(F)F)c4)n3n2)CC1 [SGI-1776] + CC(C)C[C@H](NC(=O)[C@H](Cc1ccccc1)NC(=O)c1cnccn1)B(O)O [Bortezomib] (partner 0.002 µM)
Method in brief: as §1

Cell Line	relative viability (SGI-1776 + Foretinib; first compound 0.08 µM)	relative viability (SGI-1776 + Foretinib; first compound 0.8 µM)	relative viability (SGI-1776 + Foretinib; first compound 2.53 µM)	relative viability (SGI-1776 + Foretinib; first compound 8 µM)	relative viability ([1]; first compound 0.02 µM)	relative viability ([1]; first compound 0.06325 µM)	relative viability ([1]; first compound 0.2 µM)	relative viability ([1]; first compound 0.6325 µM)	relative viability ([1]; first compound 2 µM)	relative viability (SGI-1776 + Bortezomib; first compound 0.08 µM)	relative viability (SGI-1776 + Bortezomib; first compound 0.8 µM)	relative viability (SGI-1776 + Bortezomib; first compound 2.53 µM)	relative viability (SGI-1776 + Bortezomib; first compound 8 µM)
SW 900	1.05	1.12	0.9	0.817	0.402	0.42	0.448	0.648	0.558	–	–	–	–
NCI-H1944	0.869	0.83	0.926	0.713	0.418	0.474	0.456	0.527	0.476	–	–	–	–
NCI-H838	1.08	1.05	1.05	0.669	0.437	0.437	0.413	0.5	0.371	0.848	0.973	0.764	0.353
NCI-H1651	0.787	0.75	0.985	0.794	0.65	0.643	0.614	0.66	0.568	0.976	0.923	0.874	0.889
HCC-827	1.04	1.13	1.09	0.647	0.343	0.298	0.348	0.287	0.302	1.11	0.984	1.05	1.04
HCC-366	0.907	0.963	0.961	0.392	0.296	0.395	0.343	0.373	0.223	0.919	1.11	0.98	1.12
HARA	1.04	0.946	0.718	0.913	0.529	0.569	0.64	0.576	0.412	1.2	1.21	1.01	1.05
NCI-H441	0.992	0.925	1.17	0.728	0.23	0.298	0.27	0.326	0.248	0.376	0.443	0.529	0.332
NCI-H1299	1.08	1.11	1.07	1.01	–	–	–	–	–	1.02	1.04	1.02	1.04
RERF-LC-KJ	0.879	0.894	0.879	0.78	0.71	0.826	0.617	0.758	0.585	1.1	1.08	0.956	1.04
CAL-12T	1.21	1.08	1.25	0.577	–	–	–	–	–	1.35	0.982	0.918	0.867
COR-L 105	0.857	1.1	0.72	0.734	0.604	0.683	0.61	0.621	0.572	0.929	0.833	0.587	0.282
NCI-H2405	1.07	1	0.998	0.934	0.671	0.674	0.763	0.767	0.694	1.04	0.997	0.896	0.924
NCI-H2228	0.889	0.613	0.803	0.446	–	–	–	–	–	1.05	0.917	0.992	0.531
PC-14	1.03	0.959	0.952	0.672	0.182	0.26	0.226	0.295	0.173	0.846	0.915	0.99	0.566
IA-LM	1.13	1.2	1.3	1.07	–	–	–	–	–	0.844	0.736	0.918	0.877
A549	1.07	0.891	0.752	0.277	–	0.362	0.265	0.238	0.256	–	–	–	–
NCI-H2342	1.22	1.07	1.04	1.04	0.724	0.727	0.751	0.743	0.693	–	–	–	–
NCI-H1623	0.984	0.859	0.893	0.901	–	–	–	–	–	–	–	–	–
SW 1573	0.949	0.846	0.846	0.791	0.555	0.472	0.565	0.543	0.422	1.03	0.872	1.07	0.935
NCI-H2087	1.1	1.17	0.843	0.376	0.267	0.281	0.255	0.332	0.211	0.772	0.802	0.982	0.722
NCI-H520	0.826	0.895	0.783	0.51	0.47	0.521	0.588	0.55	0.44	0.859	0.776	0.716	0.22
Calu-6	0.91	0.88	0.875	0.344	–	–	–	–	–	0.954	1.06	0.954	0.658
SK-LU-1	0.843	0.773	0.765	0.426	0.595	0.715	0.609	0.616	0.46	1.28	1.31	1.52	0.807
LCLC-97TM1	0.932	0.952	0.945	0.829	0.286	0.236	0.241	0.333	0.236	0.775	0.557	0.549	0.567
HCC-15	0.989	1.07	1.04	0.824	0.606	0.646	0.608	0.691	0.429	1.03	1.03	1.02	0.886
H3255	1.02	0.994	0.801	0.864	0.577	0.575	0.599	0.798	0.559	0.963	0.75	0.606	0.33
NCI-H1915	1.09	1.03	1.11	1.09	0.255	0.261	0.26	0.559	0.335	1.01	0.985	0.932	0.935
NCI-H1650	1.02	0.974	0.729	0.447	0.415	0.401	0.58	0.661	0.461	0.217	0.18	0.207	0.181
